Laboratory results as given in patent US10603261B2, “Composition for enhancing hair fiber properties” (The Procter & Gamble Company, priority 2014, dated 2020).

Experiment: Combing force after leave-on hair treatment using neat material
Conditions: hair treated with neat material; 1 and 5 washes
Text: This double combing apparatus is attached to an Instron Model 5564. The switch is combed 5 times with a fine-tooth comb and hanged onto the Instron load cell. Then, the hair switch is placed in the double comb apparatus. The Instron pulls the hair vertically at a rate of 10 mm/min until the hair switch clears the final comb. The peak force as the switch passes through the top comb is reported.
The treatment is repeated to two additional switches. The treated hair switches are allowed to rest for 24 hours under controlled temperature and relative humidity conditions (27° C. and 50% RH). After this time period, each hair switch is washed with a clarifying shampoo (see shampoo washing protocol below) and allowed to air dry for 24 hours under controlled temperature and relative humidity conditions (27° C. and 50% RH). The combing force is measured for each switch and an average for the three switches is calculated. […] Linoleic acid • b.
Each application consists of adding shampoo to the hair, milking for 30 seconds followed by rinsing for 30 seconds. Shampoo is then reapplied (0.1 g/g), milked for 30 seconds and rinsed for 30 seconds.

Which “combability (in words)” value does the source give for `CCCCCCCC/C=C\CCCCCCCC(=O)O` [Oleic acid] here?
Its value is “better combability”.
